{
  "source": "patent US20160175249A1",
  "about": "“Liposomes Containing Oligopeptide Fragments of Myelin Basic Protein, a Pharmaceutical Composition and a Method for Treatment of Multiple Sclerosis” (LIPOXEN TECHNOLOGIES LIMITED, priority 2009, published 2016)",
  "key": {"[1]": {"test_system": "experimental allergic encephalomyelitis (EAE) in DA rats", "experiment": "Treatment of EAE in DA rats with liposomally encapsulated MBP peptides (Example 5)", "type": "in vivo", "settings": "150 μg per animal daily subdermally days 6-11, score 0-5", "experimental": "To induce experimental allergic encephalomyelitis (EAE) in DA rats having a mass of 220-250 g ([…]), 10 μg of myelin basic protein encephalogenic peptide fragment ARTTHYGSLPQKSQRSQ (SEQ ID NO:4; Anaspec, US) emulsified in Freund's complete adjuvant (Difco, US) at a concentration of 10% (m/v) was subdermally injected into the forepaw. The rats were weighted and monitored for EAE neurological symptoms daily. The EAE symptom profile of each rate was scored according to the following scale: (0)—absence of EAE symptoms; (1)—decrease in tail tonicity; (2)—decrease in righting reflex; (3)—paresis; (4)—full paralysis; and (5)—agony or death. Intermediary symptoms were scored by increasing or decreasing the value by 0.5 units. Six days after EAE induction, animals were randomly distributed into several groups (12 animals each).\nBetween days six and eleven after induction, rats in each respective group were subdermally injected with the liposomal preparation described in Example 2 (emulsified in phosphate saline solution, pH 7.4), a positive control preparation of glatiramer acetate (GA; copaxone, Teva Pharmaceutical Industries Ltd, Israel), a prototype peptide: DENPVVIIFFKNIVTPRT (SEQ ID NO:5), or a buffered phosphate saline solution (pH 7.4) placebo. The peptide, Glatiramer acetate, and liposomal preparations were formulated immediately prior to administration using buffered phosphate saline solution (pH 7.4). 0.1 mL of each composition was administered daily at a concentration of 150 μg per animal."}, "[2]": {"test_system": "multiple sclerosis (cerebrospinal form, remissive course)", "experiment": "Treatment of a human subject diagnosed with multiple sclerosis (Example 7)", "type": "in vivo", "settings": "patient, 500 mg once every two weeks", "text": "A patient diagnosed with multiple sclerosis (cerebrospinal form, remissive course), in the relapse stage, was previously subjected to repeated corticosteroid treatment. […] At the time of treatment, the patient presented with: lateral nystagmus when looking to the right, active tendon reflex, S<D in the legs, active upper abdominal reflex, absent middle and lower abdominal reflex, bilateral Babinski's symptom, foot clonus (more expressed in the right foot), no paresis in the extremities, muscle tonicity unchanged, ataxic gait, loss of balance in the Romberg stance, ataxia when performing hccl-shin test, and urine retention. The value of the patient's neurological deficit on the EDSS scale was 6.\nThe patient also presented with ophthalmic blanching of temporal halves of optic nerve heads. After studying the patient's PBMC, the activity of T-lymphocytcs with respect to MBP was determined at a stimulation index (SI) of 7.45. Levels of serum IgG antibodies were 75 units per ml.\nWith the patient's consent, the prototype peptide composition was administered once every two weeks at a dosage of 500 mg. 7 days after each injection, the patient's peripheral (venous) blood was sampled in order to determine changes in T-lymphocyte activity with respect to MBP, as well as autoantibody levels. […] At week four, the patients IgG autoantibody level increased to 112 units per mL, and T-cell SI doubled. […]"}},
  "data": [
    {"sequence": "DENPVVIIFFKNIVTPRT (a prototype peptide) [prototype peptide used as comparator]", "values": [
      {"measurement": "Evaluation of EAE symptom intensity, average", "setting": "[1]; day 0 after EAE induction", "result": 0.00},
      {"measurement": "Evaluation of EAE symptom intensity, average", "setting": "[1]; day 1 after EAE induction", "result": 0.00},
      {"measurement": "Evaluation of EAE symptom intensity, average", "setting": "[1]; day 2 after EAE induction", "result": 0.00},
      {"measurement": "Evaluation of EAE symptom intensity, average", "setting": "[1]; day 3 after EAE induction", "result": 0.00},
      {"measurement": "Evaluation of EAE symptom intensity, average", "setting": "[1]; day 4 after EAE induction", "result": 0.00},
      {"measurement": "Evaluation of EAE symptom intensity, average", "setting": "[1]; day 5 after EAE induction", "result": 0.00},
      {"measurement": "Evaluation of EAE symptom intensity, average", "setting": "[1]; day 6 after EAE induction", "result": 0.00},
      {"measurement": "Evaluation of EAE symptom intensity, average", "setting": "[1]; day 7 after EAE induction", "result": 0.00},
      {"measurement": "Evaluation of EAE symptom intensity, average", "setting": "[1]; day 8 after EAE induction", "result": 0.58},
      {"measurement": "Evaluation of EAE symptom intensity, average", "setting": "[1]; day 9 after EAE induction", "result": 1.33},
      {"measurement": "Evaluation of EAE symptom intensity, average", "setting": "[1]; day 10 after EAE induction", "result": 2.42},
      {"measurement": "Evaluation of EAE symptom intensity, average", "setting": "[1]; day 11 after EAE induction", "result": 2.33},
      {"measurement": "Evaluation of EAE symptom intensity, average", "setting": "[1]; day 12 after EAE induction", "result": 2.50},
      {"measurement": "Evaluation of EAE symptom intensity, average", "setting": "[1]; day 13 after EAE induction", "result": 2.17},
      {"measurement": "Evaluation of EAE symptom intensity, average", "setting": "[1]; day 14 after EAE induction", "result": 2.00},
      {"measurement": "Evaluation of EAE symptom intensity, average", "setting": "[1]; day 15 after EAE induction", "result": 1.83},
      {"measurement": "Evaluation of EAE symptom intensity, average", "setting": "[1]; day 16 after EAE induction", "result": 1.67},
      {"measurement": "Evaluation of EAE symptom intensity, average", "setting": "[1]; day 17 after EAE induction", "result": 1.33},
      {"measurement": "Evaluation of EAE symptom intensity, average", "setting": "[1]; day 18 after EAE induction", "result": 1.42},
      {"measurement": "Evaluation of EAE symptom intensity, average", "setting": "[1]; day 19 after EAE induction", "result": 1.08},
      {"measurement": "Evaluation of EAE symptom intensity, average", "setting": "[1]; day 20 after EAE induction", "result": 0.83},
      {"measurement": "Evaluation of EAE symptom intensity, average", "setting": "[1]; day −1 after EAE induction", "result": 0.00},
      {"measurement": "clinical presentation of MS", "setting": "[2]; over the course of 7 weeks", "result": "progressed slightly"},
      {"measurement": "T-cell SI", "setting": "[2]; week four, before treatment 7.45", "result": "doubled"}
    ]}
  ]
}
